Like-named read-outs stand apart in the source and are kept apart here.
Columns and labels:
[1] = test system: S. aureus vancomycin-intermediates (VISA) Met-R strains; experiment: MIC determination (NCCLS broth microdilution), VISA Met-R strains; assay type: cell-based, Staphylococcus aureus; settings: antibiotype Oxa, Cip, Clin, Ery
Procedure: (§1) The MICs of thiamphenicol and of other antibiotics was obtained by using the method proposed by NCCLS (National Committee for Clinical Laboratory Standards, 1999).
(§2) Various antibiotic concentrations were added to bacteria in exponental growth (final inoculum 5×10^5 […]); dilution in Mb (cation-supplemented Mueller-Hinton broth) and distribution on a microplate by using an automatic diluting machine Biomek 1000 (Beckman, USA). MHb charged with 2% NaCl was used to test the methicillin activity.
(§3) The antibiotic concentration which hinders a visible growth after 18-24 hours of incubation at 37° C., was registered as MIC.
(§4) S. aureus ATCC 29213 was used as quality control strain.

[2] = test system: S. aureus Met-R multiresistant strains; experiment: MIC determination (NCCLS broth microdilution), methicillin-resistant multiresistant S. aureus strains; assay type: cell-based, Staphylococcus aureus; settings: Staphylococcus aureus, antibiotype Oxa, Ery, read-out: MIC
Procedure: as §1, §2, §3, §4

Measured: MIC

COc1cccc(OC)c1C(=O)N[C@@H]1C(=O)N2[C@@H]1SC(C)(C)[C@@H]2C(=O)O [Meth, methicilline]
64 µg/mL: [2]; Strain 17, Cip, Clin | [2]; Strain 30, Cip, Clin, Gm, SXT, Dox | [2]; Strain 37, Cip, Clin, Fos, Gm | [2]; Strain 39, Cip, Clin, Fos, Gm | [2]; Strain 44, Cip, Clin, Gm, Rif, Dox | [2]; Strain 48, Cip, Clin
32 µg/mL: [2]; Strain 7, Cip, Gm
> 64 µg/mL: [1]; Staphylococcus aureus, Strain 51 VISA, read-out: MIC | [2]; Strain 1, Cip, Clin, Gm | [2]; Strain 2, Clin, Fos | [2]; Strain 3, Cip, Clin, Gm | [2]; Strain 4, Cip, Gm | [2]; Strain 5, Cip, Clin | [2]; Strain 6, Clin, Gm | [2]; Strain 8, Cip, Clin | [2]; Strain 9, Cip, Clin, Gm | [2]; Strain 10, Cip, Clin, Gm | [2]; Strain 11, Clin, Rif | [2]; Strain 12, Cip, Clin | [2]; Strain 13, Cip, Clin | [2]; Strain 14, Clin, Cip | [2]; Strain 15, Cip, Clin, Gm | [2]; Strain 16, Cip, Clin | [2]; Strain 18, Cip, Clin, Gm | [2]; Strain 19, Cip, Clin, Gm | [2]; Strain 20, Cip, Clin, Gm | [2]; Strain 21, Cip, Clin, Gm | [2]; Strain 22, Cip, Clin | [2]; Strain 23, Cip, Clin, Gm | [2]; Strain 24, Cip, Clin, Gm | [2]; Strain 25, Cip, Clin, Gm | [2]; Strain 26, Cip, Clin, Fos, Gm | [2]; Strain 27, Cip, Clin, Fos, Gm | [2]; Strain 28, Cip, Clin, Gm | [2]; Strain 29, Clin, Fos | [2]; Strain 31, Cip, Clin, Fox, Gm | [2]; Strain 32, Cip, Clin, Gm, SXT, Rif | [2]; Strain 33, Cip, Clin, Gm | [2]; Strain 34, Cip, Clin, Gm | [2]; Strain 35, Cip, Clin, Gm | [2]; Strain 36, Cip, Clin, Fos | [2]; Strain 38, Cip, Gm | [2]; Strain 40, Cip, Clin, Gm | [2]; Strain 41, Cip, Clin | [2]; Strain 42, Cip, Clin, Gm | [2]; Strain 43, Cip, Clin, Gm | [2]; Strain 45, Cip, Clin, Gm, Rif, Dox, Fos | [2]; Strain 46, Clin, Fos | [2]; Strain 47, Cip, Clin, Gm | [2]; Strain 49, Cip, Gm | [2]; Strain 50, Cip, Clin, Gm, Rif, Dox
>64 µg/mL: [1]; Strain 52 VISA
